Where no end group is shown, it is not given here.
Legend:
[1] = system: NALM6 cells engrafted in NSG mice; test: In vivo CAR T cell cytokine release model; details: day 5
Text: To evaluate whether degradable CAR T cell cytokine release could be controlled in vivo, a high-level tumor engraftment model was used to provoke CAR T cell cytokine release. NALM6 cells were engrafted in non-obese diabetic scid gamma (NSG) mice one week before injection of conventional 19BBz CAR T cells, degradable 19BBz-d91.3 CAR T cells, or untransduced control T cells. On days 3-5 after T cell transfer, mice were either left untreated, treated daily, or treated twice daily with pomalidomide, which was used for in vivo experiments because it has a longer in vivo half-life than lenalidomide. On the afternoon of day 5, serum plasma concentrations were measured for a panel of human T cell cytokines (FIG. 14C). IFN-gamma levels were reduced four-fold (p=0.04) with daily and six-fold (p=0.01) with twice-daily pomalidomide treatment. […] Thus, pomalidomide can be used to limit cytokine release in vivo, the major driver of CAR T cell hyperactivation toxicities.

[2] = system: Jurkat cells expressing 19BBz-FLuc-d91.3 in NSG mice; test: In vivo CAR depletion model (bioluminescent imaging of luciferase-tagged CAR)
Experimental: (§1) FIG. 14A-14I—OFF-switch degradable CARs can be transiently depleted with pomalidomide and enforce tumor control in vivo. (FIG. 14A) Schematic of luciferase-tagged CAR constructs. […] (FIG. 14C) Summary of BLI 24 hours before, 6 hours after, and 24 hours after pomalidomide. Comparing the d91.3 and d91.3* CARs across each timepoint using two-tailed t-tests yielded p-values of 0.35, 0.003, and 0.14, respectively. (FIG. 14D) BLI representing CAR abundance over time. (FIG. 14E) Experimental design for in vivo tumor control model: NSG mice were injected intravenously with 1e6 GFP+/luciferase+ JeKo-1 tumor cells. At day 0, mice were randomly assigned on the basis of tumor burden to receive 1e6 control T cells (UTD), 19BBz, or 19BBz-d91.3. (FIG. 14F) Average luminescence of whole mice in the 3 groups over time. […] The percentage of JeKo-1 cells (FIG. 14H) and human T cell (FIG. 14I) among mononuclear cells in the bone marrow or spleen at day 35.
As expected, after exposure to lenalidomide, we observed a dose-dependent decrease in luminescence from Jurkat cells expressing degradable but not control luciferase-tagged CARs (FIG. 14A). Applicants then transplanted NSG mice with the engineered T cells. After establishing detectable engraftment by luminescence imaging, we administered a single 10 mg/kg oral pomalidomide dose the following day, and measured luminescence. […]

K562-CD19 cells = test: Jurkat CAR functional assay: CD69 expression after co-culture with K562-CD19 cells; type: cell-based; details: higher concentrations of lenalidomide; overnight co-culture with K562-CD19
Text: FIG. 12A-12D—ON-switch split CARs only function in the presence of lenalidomide. (FIG. 12A) Schematic of split CAR constructs. Each split CAR is composed of the indicated antigen-binding part A and the ITAM-containing part B. The lenalidomide-induced dimerization module is encoded by zinc fingers from IKZF3 or the engineered 913 zinc finger and a fragment of CRBN (CRBNΔ3). The intracellular domains of each split CAR part A is protected from CRL4^CRBN ubiquitination by K>R “K0” substitutions. The control second generation CAR FMC63-CD28-CD3z was also used. sCAR, split CAR. […] (FIG. 12C) Primary T cells were infected with lentiviruses encoding parts A and B of split CAR 913. Untransduced cells and cells expressing components A only, B only, and both A+B were purified by FACS. Cytotoxic activity of each sorted cell population was measured after overnight co-culture with NALM6 target cells and lenalidomide or vehicle control at the indicated effector:target ratios. The maximum plasma concentration for once daily 25 mg lenalidomide in multiple myeloma patients is indicated. (FIG. 12D) Scatterplots showing the production of cytokines after co-culture (1:1 CAR T:NALM6 ratio) in the presence of 1000 nM lenalidomide versus vehicle control. Experiments were performed in triplicate and error bars indicate standard deviation.
FIG. 24 Validation of lenalidomide-OFF-switch control of CAR T cell activation, as assessed by expression of the early activation marker CD69, in Jurkat T cells expressing various super-degron tagged chimeric antigen receptors. Regulation of CAR T cell activation with the indicated super-degrons, in comparison to the previously described degron d913. […]
Thalidomide analogs control degradable CAR T cell activation and effector functions in vitro and in vivo. […] Then cytokine production was analyzed in response to antigen stimulation.

NALM6 target cells [3] = test: Cellular cytotoxicity assay of primary human CAR-T cells; type: cell-based; details: 100 nM or 1000 nM lenalidomide; primary human CAR T cells, NALM6
Text: (§2) To evaluate whether effector functions of primary T cells could be gated by lenalidomide, primary sCAR 913 T cells were generated. As the two split CAR components are delivered by separate lentivectors, this gave the ability to use FACS to purify cells expressing neither, one, or both components.
(§3) Thalidomide analogs control degradable CAR T cell activation and effector functions in vitro and in vivo. To test whether degradable CAR T cell activation could be controlled with lenalidomide, 19BBz, 19BBz-dIKZF3, 19BBz-d91.3, and 19BBz-d91.3* Jurkat CAR T cell lines were co-cultured with K562 cells engineered to express the target antigen CD19 (K562-CD19) and 11 lenalidomide concentrations or vehicle control. […] To evaluate whether effector functions of degradable CAR T cells could be controlled with lenalidomide, primary human CAR T cells were generated and cytotoxicity assays performed comparing the conventional 19BBz CAR to the degradable 19BBz-d91.3 CAR in vitro. […] Then cytokine production was analyzed in response to antigen stimulation.
(§4) Primary human CAR-T effector cells were co-cultured with NALM6 target cells engineered to express click beetle green luciferase at the indicated ratios for 16 hours. Luciferase activity was measured with a Synergy Neo2 luminescence microplate reader (Biotek). Cell culture supernatant from these experiments was analyzed for soluble cytokines (Luminex).

NALM6 target cells [4] = test: Cytokine production in CAR T:NALM6 co-culture supernatant (Luminex); type: cell-based; details: 100 nM lenalidomide; 9:1 CAR T:NALM6
Text: as §2, §3, §4

[5] = system: JeKo-1 mantle cell lymphoma cells; test: In vivo tumor control model, mantle cell lymphoma xenograft; details: NSG mice engrafted with JeKo-1 cells; no drug
Experimental: as §1
Subtle sequence changes to chimeric antigen receptors have been associated with intended and unintended consequences for CAR T cell efficacy and toxicity in clinical trials as well as pre-clinical models (23, 33, 34). Therefore, we determined whether addition of the zinc finger super-degron tag impacts CAR T cell activity in a mantle cell lymphoma xenograft model. We engrafted NSG mice with CD19+ luciferase+ JeKo-1 mantle cell lymphoma cells. […]

[6] = system: CAR protein abundance in CAR-Jurkat cells; test: Jurkat CAR protein degradation (flow cytometry anti-Myc tag, western blot)
Experimental: CAR-Jurkat cells were treated with lenalidomide or vehicle control and then (FIG. 13B) analyzed by western blot for the specified targets or (FIG. 13C) analyzed by flow cytometry to quantify the CAR protein abundance normalized to vehicle control (anti-Myc tag). (FIG. 13D) CAR-Jurkat cells were co-cultured with K562-CD19 cells and lenalidomide or vehicle control and then analyzed by flow cytometry for the percentage of CD69+ cells. (FIG. 13E) The concentration of IL2 in supernatants from FIG. 13D was measured by ELISA. […] All experiments were performed in triplicate. Error bars indicate standard deviation.
Next, the kinetics of CAR depletion was examined after the addition of lenalidomide. […] We also examined the dynamics of CAR re-synthesis after washout of lenalidomide.
Normalized CAR expression was calculated via subtraction of the MFI of unstained cells and normalization to the signal intensity of vehicle control-treated cells. […] Luciferase-tagged CAR luminescence was measured with an EnVision plate reader (PerkinElmer).

[7] = 25 mg per day dosing; multiple myeloma patients; cited from earlier work
2FKBP (N+L) Cas9 = test: dTAG-induced degradation of FKBP-Cas9 (eGFP disruption, western blotting, degradation kinetics); type: cell-based; details: multiple assays
Experimental: Degraders targeting variant Cas9 proteins is explored in the following example. SpCas9 variants were prepared and transfected into several cell lines.
Control of CRIPSR-Cas degradation can control editing outcomes.

Nc1cccc2c1C(=O)N(C1CCC(=O)NC1=O)C2=O (stereo not drawn) [pomalidomide]
reduction of serum IFN-gamma levels ([1]; daily 30 mg/kg pomalidomide oral gavage days 3-5, p=0.04): four-fold | reduction of serum IL-2 levels ([1]; daily pomalidomide, p=0.05): four-fold | reduction of serum IFN-gamma levels ([1]; twice-daily 30 mg/kg pomalidomide oral gavage days 3-5, p=0.01): six-fold | reduction of serum IL-2 levels ([1]; twice-daily pomalidomide, p=0.06): not significantly reduced | luminescence of degradable CAR after 24 hours ([2]; 24 hours after single 10 mg/kg oral pomalidomide dose): recovered to levels similar to that of the control CAR | reduction of luminescence from the degradable CAR versus pre-treatment ([2]; six hours after single 10 mg/kg oral pomalidomide dose, p=0.003): 5 fold

19BBz-d91.3: degradable anti-CD19 CAR (4-1BB, CD3z) with d91.3 super-degron tag (FNVLMVHKRSHTGERPLQCEICGFTCRQKGNLLRHIKLHTGEKPFKCHLCNYACQRRDAL; not fully specified; cysteine pairing not given here)
inhibition of CD69 early activation marker expression (K562-CD19 cells): more completely | target cell killing (specific lysis) (NALM6 target cells [3]): not detected above background | secretion of cytokines reflective of T cell activation (NALM6 target cells [4]): reduced the secretion of all evaluated cytokines | survival, tumor burden (BLI, spleen, bone marrow), T cell persistence versus conventional 19BBz CAR T cells [5]: no significant differences | Half-maximal depletion of the degradable CAR after addition of lenalidomide ([6]; Jurkat cells): ~20 min | Half-maximal recovery of expression after washout of lenalidomide ([6]; Jurkat cells): ~3.6 h | fold lower lenalidomide concentration for depletion than endogenous IKZF3 ([6]; western blot, Jurkat cells): approximately 100 fold | lenalidomide concentration for depletion as fraction of that required to deplete endogenous IKZF3 ([6]; western blot, Jurkat cells): approximately 1/100

Nc1cccc2c1CN(C1CCC(=O)NC1=O)C2=O (stereo not drawn) [lenalidomide, reference compound]
maximum plasma concentration [7]: 1.9 µM | t½ of CAR depletion upon addition of lenalidomide ([6]; CAR-Jurkat cells, 95% CI 0.29-0.38): 0.33 h | t½ of CAR re-expression following lenalidomide treatment and drug washout ([6]; CAR-Jurkat cells, 95% CI 1.88-13.6): 3.57 h

CC[C@H](C(=O)N1CCCC[C@H]1C(=O)O[C@H](CCc1ccc(OC)c(OC)c1)c1ccccc1OCC(=O)NCCCCCCCCNc1ccc2c(c1)C(=O)N(C1CCC(=O)NC1=O)C2=O)c1cc(OC)c(OC)c(OC)c1 (stereo partly drawn) [dTAG]
concentration sufficient for complete degradation of 2FKBP (N+L) Cas9 (2FKBP (N+L) Cas9): 1 µM

Reference: patent publication US20230151342A1, “ZINC FINGER DEGRADATION DOMAINS” (THE BROAD INSTITUTE, INC, priority 2020, published 2023)
